Laboratory results taken from patent publication US20250145628A1, “PYRAZOLOPYRIMIDINES, COMPOSITIONS COMPRISING THEM AND USES THEREOF” (Novo Nordisk A/S, priority 2022, published 2025).

Columns and labels:
human CB1 receptor [1] = biological target: T1, human CB1 receptor (Homo sapiens, UniProt P21554); assay: bioSensAll β-arrestin plasma membrane translocation BRET biosensor (+GRK2) assay (antagonism of CP-55,940); format: cell-based; settings: HEK293 cells transfected with hCB1 and β-arrestin PM translocation biosensor (+GRK2), EC75 of CP-55,940 (100 nM), overnight incubation, read-out: CB1 wt βarr2 IC50
T1 construct: expressed in transfected cells; host or cells: HEK293
Method: (§1) Using polyethylenimine (PEI) transfection agent, HEK293 cells were transfected in suspension with the human CB1 or CB1b receptor and one of the following bioSensAll® assays: GAPL-Gi2, or β-arrestin plasma membrane (PM) translocation biosensor (+GRK2). Cells were directly seeded in 96-well plates immediately following transfection.
(§2) Cells were incubated with coelenterazine (luciferase substrate) and different test compounds prior to the measurement of BRET signals.
ii) The multimolecular β-arrestin membrane recruitment biosensors allow for real-time spatio-temporal monitoring of β-arrestin 1 and β-arrestin 2 following GPCR activation. Specifically, these β-arrestin sensors were designed to detect the recruitment of proteins to the plasma membrane (β-arrestin PM) with localization to compartment resulting in an increased BRET signal.
(§3) HEK293 cells were maintained in Dulbecco's Modified Eagle Medium (DMEM) (Wisent; cat #319-030-CL: without sodium pyruvate, with 4.5 g/L glucose, without L-glutamine) supplemented with 1% penicillin-streptomycin (Wisent; cat #450-201-EL) and 2 or 10% fetal bovine serum (Wisent cat #090150).
(§4) HEK293 cells were co-transfected with hCB1 or hCB1b and one of the above-listed bioSensAll® assays. For each transfection condition: • the total amount of transfected DNA was kept constant at 1 μg per mL of cell culture to be transfected; whenever necessary, salmon sperm DNA (Invitrogen, cat #15632011) was used as ‘carrier’ DNA to supplement plasmid DNA (i.e., biosensor and receptor); • the PEI (polyethylenimine 25 kDa linear, PolyScience, cat #23966) to DNA ratio (ug:ug) was fixed at 3:1.
(§5) Transfections were carried out as follows: • DNA and PEI were first diluted separately in 150 mM NaCl. The volume of the diluent in each tube corresponds to 5% of the cell culture volume to be transfected. • Once DNA and PEI were diluted, the PEI-containing solution was added to the DNA solution and the DNA/PEI mixture immediately vortexed for 5 seconds. • The DNA/PEI mixture was incubated for at least 20 minutes at room temperature to allow for the formation of DNA/PEI complexes. • During the incubation, HEK293 cells were detached, counted and re-suspended in culture medium (composition specified above). • At the end of the incubation period, the DNA/PEI mixture was added to the cells. • Cells were finally distributed in 96-well plates (White Opaque 96-well/Microplates, Greiner, cat #655083 or CulturPlate-96, White Opaque 96-well Microplate, PerkinElmer, cat #6005688) at a density of 30 000 cells per well.
(§6) At ˜48 hours post-transfection: • Using 450-Select TS Biotek plate washer, culture medium was aspirated and replaced with 100 μl of Hank's Balanced Salt Solution buffer (HBSS) (Wisent, cat #319-067CL: without red phenol; with sodium bicarbonate, with calcium and magnesium, with HEPES) per well. This process was performed a total of two times (i.e., 2 washes). • After the washing step, the HP D300 digital dispenser (Tecan) was used to inject increasing doses (12) of test compounds (ranging from 0-600 nM) to wells. Three to five minutes later, an EC75 of CP-55,940 (0.1 nM for GAPL-Gi2 assay; 100 nM for β-arrestin PM translocation biosensor (+GRK2)) was added to columns 2-12 of each 96-well plate.
(§7) BRET signals were determined by calculating the ratio of light emitted by GFP-acceptor (515 nm) over light emitted by luciferase-donor (400 nm). All BRET ratios were standardized using the equation below with pre-established BRET values for positive and negative controls. The standardized BRET ratio is referred to as universal BRET (uBRET).
(§8) Resulting dose-response curves were fitted using the four-parameter logistic non-linear regression model in GraphPad Prism 9.

human CB1 receptor [2] = biological target: T1, human CB1 receptor; assay: bioSensAll GAPL-Gi2 BRET biosensor assay (antagonism of CP-55,940); format: cell-based; settings: HEK293 cells transfected with hCB1 and GAPL-Gi2 biosensor, EC75 of CP-55,940 (0.1 nM), overnight incubation, read-out: CB1 wt Gi2 IC50
Method: as §1, §2
i) GAPL sensors are used to monitor the activation of heterotrimeric G proteins at the plasma membrane upon receptor stimulation. Specifically, these multimolecular BRET sensors detect the plasma membrane recruitment of proteins that interact with active Ga subunits in a G protein family-selective manner. G protein activation following receptor stimulation generally leads to an increase in the BRET signal.
as §3, §4, §5, §6, §7, §8

T1 sequence (P21554 whole entry): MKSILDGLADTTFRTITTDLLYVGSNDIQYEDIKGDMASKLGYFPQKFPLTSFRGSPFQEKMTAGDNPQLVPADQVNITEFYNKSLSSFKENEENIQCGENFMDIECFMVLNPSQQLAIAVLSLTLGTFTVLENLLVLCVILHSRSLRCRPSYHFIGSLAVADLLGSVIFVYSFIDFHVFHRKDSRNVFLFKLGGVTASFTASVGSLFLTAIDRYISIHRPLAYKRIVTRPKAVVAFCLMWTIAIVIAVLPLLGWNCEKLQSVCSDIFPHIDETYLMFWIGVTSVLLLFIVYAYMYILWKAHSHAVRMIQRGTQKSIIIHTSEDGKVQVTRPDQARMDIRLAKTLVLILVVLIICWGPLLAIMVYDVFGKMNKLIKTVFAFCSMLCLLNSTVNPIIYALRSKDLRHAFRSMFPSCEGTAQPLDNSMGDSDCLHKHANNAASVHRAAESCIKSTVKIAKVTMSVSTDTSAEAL

IC50 (human CB1 receptor [1])	IC50 (human CB1 receptor [2])	Structure (SMILES)
2.2 nM	0.99 nM	CC(C)OC1(C(N)=O)CCN(c2cc(N3CCC[C@H]3CO)nc3c(-c4ccc(Cl)cc4)c(-c4ccccc4Cl)nn23)CC1 [Compound 58, 1-[2-(2-chlorophenyl)-3-(4-chlorophenyl)-5-[(2S)-2-(hydroxymethyl)pyrrolidin-1-yl]pyrazolo[1,5-a]pyrimidin-7-yl]-4-isopropoxy-piperidine-4-carboxamide]
5.02 nM	1.52 nM	CC(C)(O)COc1cc(N2CC(C)(C(N)=O)C2)n2nc(-c3ccc(C#N)nc3)c(-c3ccc(Cl)cc3)c2n1 [Compound 60, 1-[3-(4-chlorophenyl)-2-(6-cyano-3-pyridyl)-5-(2-hydroxy-2-methyl-propoxy)pyrazolo[1,5-a]pyrimidin-7-yl]-3-methyl-azetidine-3-carboxamide]
14.5 nM	3.01 nM	C[C@@H](C(N)=O)N(C)c1cc(N2CCC(C)(C(N)=O)CC2)n2nc(-c3ccccc3Cl)c(-c3ccc(Cl)cc3)c2n1 [Compound 68, 1-[5-[[(1S)-2-amino-1-methyl-2-oxo-ethyl]-methyl-amino]-2-(2-chlorophenyl)-3-(4-chlorophenyl)pyrazolo[1,5-a]pyrimidin-7-yl]-4-methyl-piperidine-4-carboxamide]
2.78 nM	1.11 nM	C[C@@H](O)COc1cc(-c2ccc(C(F)(F)F)nc2)n2nc(-c3ccccc3Cl)c(-c3ccc(Cl)cc3)c2n1 [Compound 70(R)]
4.79 nM	2.21 nM	COc1ccc(-c2cc(N3CCC[C@H]3CO)nc3c(-c4ccc(Cl)cc4)c(-c4ccc(C#N)cc4)nn23)cc1 [Compound 50, 4-[3-(4-chlorophenyl)-5-[(2S)-2-(hydroxymethyl)pyrrolidin-1-yl]-7-(4-methoxyphenyl)pyrazolo[1,5-a]pyrimidin-2-yl]benzonitrile]
9.55 nM	3.97 nM	CC(C)(O)COc1cc(N2CCN(S(=O)(=O)C(F)(F)F)CC2)n2nc(-c3ccccc3Cl)c(-c3ccc(Cl)cc3)c2n1 [Compound 15, 1-[2-(2-chlorophenyl)-3-(4-chlorophenyl)-7-[4-(trifluoromethylsulfonyl)piperazin-1-yl]pyrazolo[1,5-a]pyrimidin-5-yl]oxy-2-methyl-propan-2-ol]
1.74 nM	0.255 nM	CN(CCO)c1cc(N2CCC(C)(C(N)=O)CC2)n2nc(-c3ccccc3Cl)c(-c3ccc(Cl)cc3)c2n1 [Compound 10, 1-[2-(2-chlorophenyl)-3-(4-chlorophenyl)-5-[2-hydroxyethyl(methyl)amino]pyrazolo[1,5-a]pyrimidin-7-yl]-4-methyl-piperidine-4-carboxamide]
325 nM	150 nM	CCNC(=O)CN(C)c1cc(N2CC[C@H](CC(N)=O)C2)n2nc(-c3ccccc3Cl)c(-c3ccc(Cl)cc3)c2n1 [Compound 36, 2-[(3R)-1-[2-(2-chlorophenyl)-3-(4-chlorophenyl)-5-[[2-(ethylamino)-2-oxo-ethyl]-methyl-amino]pyrazolo[1,5-a]pyrimidin-7-yl]pyrrolidin-3-yl]acetamide]
5.25 nM	1.64 nM	O[C@H]1CCN(c2cc(-c3ccc(C(F)(F)F)nc3)n3nc(-c4ccccc4Cl)c(-c4ccc(Cl)cc4)c3n2)C1 [Compound 72(S)]
93.9 nM	18.9 nM	CN(CCC(N)=O)c1cc(N2CC[C@H](CC(N)=O)C2)n2nc(-c3ccccc3Cl)c(-c3ccc(Cl)cc3)c2n1 [Compound 28, 3-[[7-[(3R)-3-(2-amino-2-oxo-ethyl)pyrrolidin-1-yl]-2-(2-chlorophenyl)-3-(4-chlorophenyl)pyrazolo[1,5-a]pyrimidin-5-yl]-methyl-amino]propanamide]
35.3 nM	5.91 nM	CC1(C(N)=O)CCN(c2cc(N3CCC[C@H]3C(N)=O)nc3c(-c4ccc(Cl)cc4)c(-c4ccccc4Cl)nn23)CC1 [Compound 37, 1-[5-[(2S)-2-carbamoylpyrrolidin-1-yl]-2-(2-chlorophenyl)-3-(4-chlorophenyl)pyrazolo[1,5-a]pyrimidin-7-yl]-4-methyl-piperidine-4-carboxamide]
1.73 nM	0.95 nM	CC(C)(O)COc1cc(N2CC(C)(C#N)C2)n2nc(-c3ccc(C#N)nc3)c(-c3ccc(Cl)cc3)c2n1 [Compound 51, 5-[3-(4-chlorophenyl)-7-(3-cyano-3-methyl-azetidin-1-yl)-5-(2-hydroxy-2-methyl-propoxy)pyrazolo[1,5-a]pyrimidin-2-yl]pyridine-2-carbonitrile]
17.5 nM	6.47 nM	CN(C)C(=O)CN(C)c1cc(N2CCC(C)(C(N)=O)CC2)n2nc(-c3ccccc3Cl)c(-c3ccc(Cl)cc3)c2n1 [Compound 25, 1-[2-(2-chlorophenyl)-3-(4-chlorophenyl)-5-[[2-(dimethylamino)-2-oxo-ethyl]-methyl-amino]-pyrazolo[1,5-a]pyrimidin-7-yl]-4-methyl-piperidine-4-carboxamide]
109 nM	56.2 nM	CC1(C(N)=O)CCN(c2cc(N3CCC[C@H]3C(=O)O)nc3c(-c4ccc(Cl)cc4)c(-c4ccccc4Cl)nn23)CC1 [Compound 18, (2S)-1-[7-(4-carbamoyl-4-methyl-1-piperidyl)-2-(2-chlorophenyl)-3-(4-chlorophenyl)pyrazolo[1,5-a]pyrimidin-5-yl]pyrrolidine-2-carboxylic acid]
14.5 nM	1.96 nM	CN(C[C@H](O)CO)c1cc(N2CCC(C)(C(N)=O)CC2)n2nc(-c3ccccc3Cl)c(-c3ccc(Cl)cc3)c2n1 [Compound 67, 1-[2-(2-chlorophenyl)-3-(4-chlorophenyl)-5-[[(2S)-2,3-dihydroxypropyl]-methyl-amino]pyrazolo[1,5-a]pyrimidin-7-yl]-4-methyl-piperidine-4-carboxamide]
5.8 nM	2.69 nM	Cc1ccc(-c2cc(N3CCC[C@H]3CO)nc3c(-c4ccc(Cl)cc4)c(-c4ccccc4Cl)nn23)cn1 [Compound 56, [(2S)-1-[2-(2-chlorophenyl)-3-(4-chlorophenyl)-7-(6-methyl-3-pyridyl)pyrazolo[1,5-a]pyrimidin-5-yl]pyrrolidin-2-yl]methanol]
9.25 nM	2.52 nM	CC(C)(O)COc1cc(N2CCC(C)(O)CC2)n2nc(-c3ccccc3Cl)c(-c3ccc(Cl)cc3)c2n1 [Compound 14, 1-[2-(2-chlorophenyl)-3-(4-chlorophenyl)-5-(2-hydroxy-2-methyl-propoxy)pyrazolo[1,5-a]pyrimidin-7-yl]-4-methyl-piperidin-4-ol]
12.3 nM	3.08 nM	C[C@H](CO)Oc1cc(-c2ccc(C(F)(F)F)nc2)n2nc(-c3ccccc3Cl)c(-c3ccc(Cl)cc3)c2n1 [Compound 71(R)]
22.8 nM	5.53 nM	CN(CC(C)(C)O)c1cc(N2CCC(C)(C(N)=O)CC2)n2nc(-c3ccccc3Cl)c(-c3ccc(Cl)cc3)c2n1 [Compound 20, 1-[2-(2-chlorophenyl)-3-(4-chlorophenyl)-5-[(2-hydroxy-2-methyl-propyl)-methyl-amino]pyrazolo[1,5-a]pyrimidin-7-yl]-4-methyl-piperidine-4-carboxamide]
